Here are results for 1 compound from PMC9632963, “Preclinical characterization and phase I clinical trial of CT053PTSA targets MET, AXL, and VEGFR2 in patients with advanced solid tumors” (Frontiers in Immunology, 2022).

The term IC50 denotes the concentration needed to halve the response being measured. The IC90 is the concentration needed for an effect of 90%.

Like-named read-outs stand apart in the source and are kept apart here.

Assay [1] deals with AZ521. The assay is described as follows: Cell proliferation assay (CellTiter-Glo, 72 hours). Format: cell-based. The settings on record: Homo sapiens, AZ-521, read-out: IC50 anti-proliferative. In general terms: Cellular ATP, detected with luciferase, serves as a proxy for viable cell number.
For assay [2], the target named is FLT1 (Homo sapiens, UniProt P17948). Description: Kinase inhibition assay (LANCE or HTRF). In kind it is biochemical. The settings on record: ATP at Km. A general note: Time-resolved FRET reads energy transfer from a long-lived donor to a nearby acceptor.
Chain of FLT1 (P17948 27-1338): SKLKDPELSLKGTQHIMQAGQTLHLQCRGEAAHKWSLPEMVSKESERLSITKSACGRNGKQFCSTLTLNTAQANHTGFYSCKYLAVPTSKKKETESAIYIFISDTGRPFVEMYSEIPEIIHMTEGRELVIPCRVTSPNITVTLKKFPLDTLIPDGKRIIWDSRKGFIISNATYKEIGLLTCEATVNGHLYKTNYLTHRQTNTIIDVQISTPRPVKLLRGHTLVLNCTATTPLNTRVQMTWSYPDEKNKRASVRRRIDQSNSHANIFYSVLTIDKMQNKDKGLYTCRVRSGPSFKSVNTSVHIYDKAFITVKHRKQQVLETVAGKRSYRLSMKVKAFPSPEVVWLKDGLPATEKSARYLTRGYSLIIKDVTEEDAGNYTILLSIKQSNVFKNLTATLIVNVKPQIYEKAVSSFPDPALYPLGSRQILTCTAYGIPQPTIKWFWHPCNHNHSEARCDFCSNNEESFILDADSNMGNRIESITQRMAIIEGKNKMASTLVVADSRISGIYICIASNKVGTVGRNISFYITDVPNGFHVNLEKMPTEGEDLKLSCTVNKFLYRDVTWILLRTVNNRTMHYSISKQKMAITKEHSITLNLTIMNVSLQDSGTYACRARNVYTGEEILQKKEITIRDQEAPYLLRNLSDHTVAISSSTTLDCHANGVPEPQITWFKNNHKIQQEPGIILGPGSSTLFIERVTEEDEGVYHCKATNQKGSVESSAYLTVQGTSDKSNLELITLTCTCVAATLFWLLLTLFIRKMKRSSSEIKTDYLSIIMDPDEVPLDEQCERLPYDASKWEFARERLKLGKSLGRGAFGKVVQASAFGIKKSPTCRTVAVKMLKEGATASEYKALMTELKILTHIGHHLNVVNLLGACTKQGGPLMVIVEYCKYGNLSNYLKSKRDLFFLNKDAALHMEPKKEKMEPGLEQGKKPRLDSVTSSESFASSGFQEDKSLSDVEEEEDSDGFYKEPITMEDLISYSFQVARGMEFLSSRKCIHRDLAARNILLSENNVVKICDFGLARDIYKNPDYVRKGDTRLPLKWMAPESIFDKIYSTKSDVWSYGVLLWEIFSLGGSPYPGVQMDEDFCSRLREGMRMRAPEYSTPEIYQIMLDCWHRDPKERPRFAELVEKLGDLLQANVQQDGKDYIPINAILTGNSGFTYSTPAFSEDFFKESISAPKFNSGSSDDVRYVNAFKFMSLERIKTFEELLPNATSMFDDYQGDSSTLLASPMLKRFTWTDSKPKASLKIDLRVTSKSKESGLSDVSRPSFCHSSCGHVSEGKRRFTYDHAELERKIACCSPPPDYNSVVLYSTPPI
Procedure: (§2) The IC50 values were determined by measuring phosphorylation of peptide substrate poly at ATP concentrations at the Km.
Assay [3] addresses FLT3 (Homo sapiens, UniProt P36888). The assay is described as follows: Cellular kinase phosphorylation assay (sandwich ELISA), FLT3-wt-MEFs, FLT3-ligand stimulated. In kind it is cell-based. Details: MEFs expressing full-length human FLT3 (FLT3-wt-MEFs); expressed in transfected cells; host or cells: mouse embryonic fibroblasts (MEFs). The settings on record: FLT3-ligand 50 ng/ml. (ELISA stands for enzyme-linked immunosorbent assay.)
Procedure: Phosphorylation of the receptors MET, AXL, VEGFR2, and FLT3 was assessed in the transgenic human MKN45 gastric tumor cell line overexpressing MET, mouse embryonic fibroblasts (MEFs) expressing full-length human AXL (AXL-MEFs), human umbilical vein endothelial cells (HUVECs) overexpressing VEGFR-2, and MEFs expressing full-length human FLT3 (FLT3-wt-MEFs), respectively. […] Then, HUVECs and FLT3-wt-MEFs were stimulated with the ligands VEGF-A (100 ng/ml, for 3 min) and FLT3-ligand (50 ng/ml, for 5 min). MKN45 (overexpressing MET) and AXL-MEFs cells had no stimulation. […] Raw data were converted into percent substrate phosphorylation relative to high controls, which were set to 100%.

The target in assay [4] is TXK (Homo sapiens, UniProt P42681). Description: Kinase inhibition assay (LANCE or HTRF). The settings on record: ATP at Km. In kind it is biochemical.
Chain of TXK (P42681 whole entry): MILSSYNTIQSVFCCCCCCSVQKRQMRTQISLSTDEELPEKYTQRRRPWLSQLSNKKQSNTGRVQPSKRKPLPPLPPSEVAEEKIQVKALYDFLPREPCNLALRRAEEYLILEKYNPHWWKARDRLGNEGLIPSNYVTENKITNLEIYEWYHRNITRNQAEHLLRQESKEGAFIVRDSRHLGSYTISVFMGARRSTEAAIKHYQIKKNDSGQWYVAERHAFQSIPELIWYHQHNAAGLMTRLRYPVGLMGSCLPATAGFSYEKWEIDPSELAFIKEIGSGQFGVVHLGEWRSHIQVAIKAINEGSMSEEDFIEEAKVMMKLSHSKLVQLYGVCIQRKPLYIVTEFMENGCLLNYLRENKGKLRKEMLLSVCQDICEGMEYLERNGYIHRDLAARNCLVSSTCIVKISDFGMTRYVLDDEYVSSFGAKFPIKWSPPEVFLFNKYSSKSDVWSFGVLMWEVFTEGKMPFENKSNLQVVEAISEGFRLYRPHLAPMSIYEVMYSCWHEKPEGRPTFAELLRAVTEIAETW
Procedure: as §2
For assay [5], the system named is AGS. The assay is described as follows: Cell proliferation assay (CellTiter-Glo, 72 hours). In kind it is cell-based. The settings on record: Homo sapiens, read-out: IC50 anti-proliferative.
Procedure: These cell lines were obtained from American Type Culture Collection (ATCC), Japanese Collection of Research Bioresources (JCRB), Shanghai Institutes of Biological Sciences, CAS (SIBS), Korean Cell Line Bank (KCLB) or National Institutes of Health (NIH). […] Cell viability was measured after 72 hours using a CellTiter-Glo Luminescent Cell Viability Assay Kit (Promega, WI, USA) according to the manufacturer’s instructions.
Assay [6] has as its system SNU-484. The assay is described as follows: Cell proliferation assay (CellTiter-Glo, 72 hours). Format: cell-based. To be noted: Homo sapiens, read-out: IC50 anti-proliferative.
The subject of assay [7] is HUVECs. The assay is described as follows: Endothelial cell tubule formation assay, VEGF-induced. Format: cell-based. The settings on record: Homo sapiens, HUVEC, VEGF 40 ng/ml, 8 hours. The text has this: (§1) Then, after staining with Calcein AM (ThermoFisher, CA, USA), images of tubule formation were captured, and the total tube area was quantified with ImageXpress HCS (Molecular Devices, CA, USA).

For assay [8], the system named is HUVECs. Description: Endothelial cell tubule formation assay, HGF-induced. Format: cell-based. To be noted: Homo sapiens, HUVEC, HGF 45 ng/ml, 8 hours.
Excerpt: as §1

The subject of assay [9] is SNU620. The assay is described as follows: Cell proliferation assay (CellTiter-Glo, 72 hours). In kind it is cell-based. The settings on record: Homo sapiens, read-out: IC50 anti-proliferative.
Procedure: (§3) Human gastric tumor cell lines with high MET expression levels, namely, the GTL-16, MKN45, SNU638, Hs746T, SNU-620, and SNU-5 cell lines, were used in the assay. […] Cell viability was measured after 72 hours using a CellTiter-Glo Luminescent Cell Viability Assay Kit (Promega, WI, USA) according to the manufacturer’s instructions.
The target of assay [10] is RET (Homo sapiens, UniProt P07949). The assay is described as follows: Kinase inhibition assay (LANCE or HTRF). To be noted: ATP at Km. In kind it is biochemical.
Procedure: as §2
Assay [11] addresses AXL (Homo sapiens, UniProt P30530). The assay is described as follows: Kinase inhibition assay (LANCE or HTRF). The settings on record: ATP at Km. Further details: expressing full-length human AXL (AXL-MEFs); expressed in transfected cells; host or cells: mouse embryonic fibroblasts (MEFs). Format: biochemical.
Procedure: as §2
Assay [12] has as its system GTL16. The assay is described as follows: Cell proliferation assay (CellTiter-Glo, 72 hours). Format: cell-based. To be noted: Homo sapiens, GTL 16, read-out: IC50 anti-proliferative.
Procedure: as §3
For assay [13], the target named is VEGFR2 (Homo sapiens, UniProt P35968). The assay is described as follows: Cellular kinase phosphorylation assay (sandwich ELISA), HUVECs, VEGF-A stimulated. Format: cell-based. Further details: endogenous in cells; host or cells: HUVEC. As for the experimental part: Phosphorylation of the receptors MET, AXL, VEGFR2, and FLT3 was assessed in the transgenic human MKN45 gastric tumor cell line overexpressing MET, mouse embryonic fibroblasts (MEFs) expressing full-length human AXL (AXL-MEFs), human umbilical vein endothelial cells (HUVECs) […], and MEFs expressing full-length human FLT3 (FLT3-wt-MEFs), respectively. […] Then, HUVECs and FLT3-wt-MEFs were stimulated with the ligands VEGF-A (100 ng/ml, for 3 min) and FLT3-ligand (50 ng/ml, for 5 min). MKN45 (overexpressing MET) and AXL-MEFs cells had no stimulation. Cells treated with staurosporine (AXL, FLT3-wt, c-Kit, FLT3, TIE2, VEGF-R2; [1,0E-05 M]) or BMS777607 (MET; [1,0E-06 M]) or sunitinib (VEGF-R3; [1,0E-06 M]) or crizotinib (RON; [1,0E-05 M] were defined as low control (n = 8). The median value of those wells represented the background and was set to 0%. Cells treated with solvent alone were defined as high control (n = 8). The median value of those wells was set to 100%. Test sample-treated cells as well as high and low control were stimulated in identical manner. Quantification of receptor tyrosine kinase autophosphorylation was assessed in 96-well plates via sandwich ELISA using a receptor specific capture antibody and an anti-phosphotyrosine detection antibody. […]
Chain of VEGFR2 (P35968 20-1356): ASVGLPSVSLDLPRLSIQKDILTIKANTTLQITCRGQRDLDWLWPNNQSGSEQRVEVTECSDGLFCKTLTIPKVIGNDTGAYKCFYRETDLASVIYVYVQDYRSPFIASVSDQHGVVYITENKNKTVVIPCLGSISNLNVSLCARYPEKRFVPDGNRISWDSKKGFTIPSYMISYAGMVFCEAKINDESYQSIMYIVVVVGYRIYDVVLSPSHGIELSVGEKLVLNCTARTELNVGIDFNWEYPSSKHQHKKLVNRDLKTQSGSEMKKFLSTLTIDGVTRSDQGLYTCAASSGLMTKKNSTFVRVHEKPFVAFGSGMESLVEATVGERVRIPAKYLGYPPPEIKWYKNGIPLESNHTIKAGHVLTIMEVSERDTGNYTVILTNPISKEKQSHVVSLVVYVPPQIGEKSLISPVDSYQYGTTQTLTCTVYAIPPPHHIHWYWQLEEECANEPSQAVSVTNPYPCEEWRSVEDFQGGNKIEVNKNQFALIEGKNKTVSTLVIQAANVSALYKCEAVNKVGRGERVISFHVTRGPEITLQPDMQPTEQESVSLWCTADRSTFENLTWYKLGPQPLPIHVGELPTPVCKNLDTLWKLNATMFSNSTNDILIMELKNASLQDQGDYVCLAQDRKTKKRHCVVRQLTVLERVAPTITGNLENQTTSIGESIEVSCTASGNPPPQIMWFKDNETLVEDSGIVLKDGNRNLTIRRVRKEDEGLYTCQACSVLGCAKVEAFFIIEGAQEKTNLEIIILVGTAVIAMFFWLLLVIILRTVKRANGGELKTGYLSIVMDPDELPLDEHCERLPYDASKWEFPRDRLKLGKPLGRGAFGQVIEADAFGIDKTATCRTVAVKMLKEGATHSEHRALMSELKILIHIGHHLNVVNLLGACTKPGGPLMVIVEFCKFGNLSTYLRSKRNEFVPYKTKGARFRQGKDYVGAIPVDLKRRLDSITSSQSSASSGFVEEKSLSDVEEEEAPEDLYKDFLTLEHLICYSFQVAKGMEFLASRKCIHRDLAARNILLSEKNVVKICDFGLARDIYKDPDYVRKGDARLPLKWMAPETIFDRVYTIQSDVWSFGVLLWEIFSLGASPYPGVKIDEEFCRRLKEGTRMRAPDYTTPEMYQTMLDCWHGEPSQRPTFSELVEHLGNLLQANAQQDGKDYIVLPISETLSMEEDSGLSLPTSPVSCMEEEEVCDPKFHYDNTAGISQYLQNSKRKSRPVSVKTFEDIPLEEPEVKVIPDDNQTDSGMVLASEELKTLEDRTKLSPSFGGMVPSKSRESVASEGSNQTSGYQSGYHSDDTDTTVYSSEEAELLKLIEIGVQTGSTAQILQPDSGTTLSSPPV

For assay [14], the target named is KinomeScan panel of 95 kinase binding assays. The assay is described as follows: KinomeScan kinase binding assay, panel of 95 kinase assays. The settings on record: 10 μM single concentration. As for the experimental part:
KinomeScan kinase binding assays were performed as described in reports i.
%Ctrl Calculation: [test compound signal-positive control signalnegative control signal-positive control signal]?100
test compound = compound submitted by Calitor; negative control = DMSO (100%Ctrl); positive control = control compound (0%Ctrl).

Assay [15] relates to MKN45. The assay is described as follows: Cell proliferation assay (CellTiter-Glo, 72 hours). In kind it is cell-based. The settings on record: Homo sapiens, MKN-45, read-out: IC50 anti-proliferative.
Procedure: as §3

Chain of FLT3 (P36888 27-993): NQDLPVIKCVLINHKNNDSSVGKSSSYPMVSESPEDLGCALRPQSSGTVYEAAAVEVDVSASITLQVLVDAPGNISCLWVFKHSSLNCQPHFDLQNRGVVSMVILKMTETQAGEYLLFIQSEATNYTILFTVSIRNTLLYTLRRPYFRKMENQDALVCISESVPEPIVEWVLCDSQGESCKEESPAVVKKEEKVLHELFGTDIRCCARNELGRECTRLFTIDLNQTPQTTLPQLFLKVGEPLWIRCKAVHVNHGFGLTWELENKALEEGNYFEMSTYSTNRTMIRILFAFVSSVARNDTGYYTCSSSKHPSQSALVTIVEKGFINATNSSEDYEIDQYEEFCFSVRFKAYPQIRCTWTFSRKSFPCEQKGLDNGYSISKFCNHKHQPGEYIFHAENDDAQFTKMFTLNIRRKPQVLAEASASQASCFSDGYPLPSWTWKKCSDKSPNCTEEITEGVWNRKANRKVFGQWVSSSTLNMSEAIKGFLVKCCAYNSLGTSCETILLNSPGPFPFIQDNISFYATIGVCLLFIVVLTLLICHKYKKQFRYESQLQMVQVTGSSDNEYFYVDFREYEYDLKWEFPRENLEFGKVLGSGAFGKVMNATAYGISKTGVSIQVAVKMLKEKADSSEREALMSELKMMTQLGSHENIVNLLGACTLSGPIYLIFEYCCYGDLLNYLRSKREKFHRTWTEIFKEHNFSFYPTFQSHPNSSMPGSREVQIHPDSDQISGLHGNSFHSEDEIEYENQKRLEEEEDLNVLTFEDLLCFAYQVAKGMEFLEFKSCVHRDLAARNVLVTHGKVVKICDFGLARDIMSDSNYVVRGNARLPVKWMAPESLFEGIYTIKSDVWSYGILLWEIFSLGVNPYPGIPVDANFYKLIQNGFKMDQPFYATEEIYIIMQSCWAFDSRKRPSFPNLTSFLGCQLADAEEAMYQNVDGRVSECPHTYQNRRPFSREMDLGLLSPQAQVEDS
Chain of AXL (P30530 26-894): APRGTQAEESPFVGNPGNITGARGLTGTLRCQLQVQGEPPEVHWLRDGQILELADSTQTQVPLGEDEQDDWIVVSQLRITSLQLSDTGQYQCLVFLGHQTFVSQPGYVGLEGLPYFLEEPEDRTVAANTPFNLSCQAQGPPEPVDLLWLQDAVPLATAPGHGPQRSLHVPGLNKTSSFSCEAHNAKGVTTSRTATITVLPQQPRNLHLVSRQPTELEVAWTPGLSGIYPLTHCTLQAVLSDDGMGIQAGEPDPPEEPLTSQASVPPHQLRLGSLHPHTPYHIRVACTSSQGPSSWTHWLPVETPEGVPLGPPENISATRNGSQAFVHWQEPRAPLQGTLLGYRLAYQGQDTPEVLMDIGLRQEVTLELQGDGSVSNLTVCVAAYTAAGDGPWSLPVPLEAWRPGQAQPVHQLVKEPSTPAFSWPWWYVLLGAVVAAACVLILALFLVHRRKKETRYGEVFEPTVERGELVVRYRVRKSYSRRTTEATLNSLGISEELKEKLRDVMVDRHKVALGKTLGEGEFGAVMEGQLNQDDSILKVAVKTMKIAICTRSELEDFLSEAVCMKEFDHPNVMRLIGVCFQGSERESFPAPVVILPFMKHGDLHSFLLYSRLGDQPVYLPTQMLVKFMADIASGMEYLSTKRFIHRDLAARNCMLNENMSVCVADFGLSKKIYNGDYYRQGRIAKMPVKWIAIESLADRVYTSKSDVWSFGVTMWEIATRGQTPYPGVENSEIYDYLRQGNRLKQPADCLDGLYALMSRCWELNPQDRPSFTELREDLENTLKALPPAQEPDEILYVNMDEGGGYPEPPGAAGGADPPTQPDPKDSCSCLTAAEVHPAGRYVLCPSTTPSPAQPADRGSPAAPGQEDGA

`Cc1c(C(=O)Nc2ccc(Oc3ccnc4cc(OCC(C)(C)O)ccc34)c(F)c2)c(=O)n(-c2ccccc2)n1C` [CT053]: the IC50 in [1] is above 10000 nM; in [2], 6100 nM; in [3] it was 1.5 nM; in assay [4] it was 270 nM; in assay [5] it was above 10000 nM; in [6], 8500 nM. Moreover, the concentration for half-maximal inhibition (IC50) in [7] (read-out: IC50, percentage area of tube formation (+ VEGF)) was determined as 20 nM; in assay [8] (read-out: IC50, percentage area of tube formation (+ HGF)) it was 310 nM; in [9], 60 nM; in assay [10] it was 200 nM; in [11], 3.4 nM; in [12], 170 nM. For the same compound, the IC50 in assay [13] (HUVECs, VEGF-A 100 ng/ml, read-out: IC50, phosphorylation of VEGFR2) is 1.1 nM; in assay [13] (printed in Figure 1E, read-out: phospho-VEGF-R2: IC50) it was 1.1 nM; in [15] it was 100 nM. Further, the IC90 was 170 nM in assay [7] (read-out: IC90, Tube Area % Effect (+ VEGF)) and above 3000 nM in [8] (read-out: IC90, Tube Area % Effect (+ HGF)). Moreover, the kinase interaction pattern result in [14] is recorded as “highly specific”.
